How the values were obtained:
HT-29 [1] = test: Antiproliferative activity against human HT-29 cells assessed as inhibition of cell proliferation after 3 days by MTS assay; type: functional, cell-based; settings: HT-29, 72 h
MDA-MB-231 = test: Antiproliferative activity against human MDA-MB-231 cells assessed as inhibition of cell proliferation after 3 days by MTS assay; type: functional, cell-based; settings: MDA-MB-231, 72 h
[2] = Antiproliferative activity against human FEK4 cells assessed as inhibition of cell proliferation after 3 days by MTS assay; type: cell-based; settings: FEK4, 72 h
LNCaP = test: Antiproliferative activity against human LNCAP cells assessed as inhibition of cell proliferation after 3 days by MTS assay; type: functional, cell-based; settings: 72 h
Tubulin (Homo sapiens) = Tubulin (Homo sapiens) (UniProt P68371+Q9H4B7+P0DPH7+P68366+Q13509+Q71U36+P04350+Q3ZCM7+P07437+P68363+Q9BQE3+Q6PEY2+Q13885+Q9BVA1+Q9BUF5); test: Induction of tubulin (unknown origin) polymerization; type: protein-complex assay
HT-29 [3] = test: Inhibition of human HT-29 cell proliferation; type: functional, cell-based
A2780 = test: Inhibition of human A2780 cell proliferation; type: functional, cell-based
HCT-116 = test: Inhibition of human HCT116 cell proliferation; type: functional, cell-based
K562 = test: Inhibition of human K562 cell proliferation; type: functional, cell-based

| Structure (SMILES) | IC50 (HT-29 [1]) | IC50 (MDA-MB-231) | IC50 [2] | IC50 (LNCaP) | ED90 (Tubulin (Homo sapiens)) | IC50 (HT-29 [3]) | IC50 (A2780) | IC50 (HCT-116) | IC50 (K562) |
| --- | --- | --- | --- | --- | --- | --- | --- | --- | --- |
| COc1ccc(C(=O)/C=C/c2cccn2C)cc1 | 61.8 µM | 53.5 µM | 188 µM | 75.5 µM | – | – | – | – | – |
| COc1ccc(C(=O)/C=C/c2cccn2C)cc1OC | 60.4 µM | 42.8 µM | 162 µM | 56.3 µM | – | – | – | – | – |
| COc1cc(C(=O)/C=C/c2nccn2C)cc(OC)c1OC | 4.2 µM | 4.9 µM | 17.5 µM | 11 µM | – | – | – | – | – |
| O[C@H]1C/C=C\CC[C@@H]2C=C[C@H]1O2 | – | – | – | – | 3 µM | – | – | – | – |
| COc1ccc(C(=O)/C=C/c2cnc[nH]2)cc1OC | 37.9 µM | 18.2 µM | 84.2 µM | 46.2 µM | – | – | – | – | – |
| COc1cc(C(=O)/C=C/c2cn(C)cn2)cc(OC)c1OC | 2.9 µM | 4.8 µM | 85 µM | 48.4 µM | – | – | – | – | – |
| COc1cc(C(=O)/C=C/c2cccn2C)cc(OC)c1OC | 12.5 µM | 18 µM | 118 µM | 69.5 µM | – | – | – | – | – |
| CC1=CC[C@H](C(C)C)[C@H]2C[C@H](OC(=O)C(C)(C)C)[C@@H](O)/C=C\C[C@@H](OC(=O)/C=C/c3cn(C)cn3)C[C@@H]12 | 5 µM | – | – | – | 1.8 µM | 5 µM | 4 µM | 4 µM | – |
| COc1ccc(C(=O)/C=C/c2ccc[nH]2)cc1 | > 500 µM | > 500 µM | > 500 µM | > 500 µM | – | – | – | – | – |
| COc1cc(C(=O)/C=C/c2cnc[nH]2)cc(OC)c1OC | 19.5 µM | 22.9 µM | 53.2 µM | 48.1 µM | – | – | – | – | – |
| Cn1cnc(/C=C/C(=O)O[C@H]2C/C=C\CC[C@@H]3C=C[C@H]2O3)c1 | – | – | – | – | 6 µM | – | – | – | – |
| COc1ccc(C(=O)/C=C/c2ccc[nH]2)cc1OC | 86 µM | 102 µM | 135 µM | 105 µM | – | – | – | – | – |
| COc1cccc2c1C(=O)c1c(O)c3c(c(O)c1C2=O)C[C@@](O)(C(=O)CO)C[C@@H]3O[C@H]1C[C@H](N)[C@H](O)[C@H](C)O1 [DOXORUBICIN] | 0.164 µM | 0.12 µM | – | 0.154 µM | – | – | – | – | – |
| CC(=O)O[C@H]1C(=O)[C@@]2(C)[C@H]([C@H](OC(=O)c3ccccc3)[C@]3(O)C[C@H](OC(=O)[C@H](O)[C@@H](NC(=O)c4ccccc4)c4ccccc4)C(C)=C1C3(C)C)[C@]1(OC(C)=O)CO[C@@H]1C[C@@H]2O [PACLITAXEL] | < 0.005 µM | – | – | – | 0.5 µM | – | – | – | – |
| COc1cc(C(=O)CCc2cnc[nH]2)cc(OC)c1OC | > 500 µM | 223 µM | > 500 µM | 368 µM | – | – | – | – | – |
| COc1cc(C(=O)/C=C/c2ccc[nH]2)cc(OC)c1OC | 43 µM | 49.9 µM | 156 µM | 59.9 µM | – | – | – | – | – |
| COc1ccc(O[C@@H]2/C=C\CC(O)C[C@@H]3[C@@H](C(C)C)CC=C(C)[C@@H]3C[C@@H]2OC(=O)/C=C/c2cn(C)cn2)cc1 (single isomer, unassigned) | – | – | – | – | 0.5 µM | – | 1.9 µM | 0.9 µM | 2.3 µM |
| COc1cc(C(=O)/C=C/c2ncc[nH]2)cc(OC)c1OC | 5 µM | 4.9 µM | 28.6 µM | 17.1 µM | – | – | – | – | – |
| COc1cc(C(=O)/C=C/c2cncn2C)cc(OC)c1OC | 15.9 µM | 16.9 µM | 49.9 µM | 30.6 µM | – | – | – | – | – |

Source: ChEMBL document CHEMBL3217660, “Design, synthesis and antiproliferative activity of urocanic-chalcone hybrid derivatives” (Medchemcomm, 2011)
